Patent publication US20200399262A1, “COMPOUNDS FOR INHIBITING PROTEIN DEGRADATION AND METHODS OF USE THEREOF IN THE TREATMENT OF CANCER” (PI Therapeutics Ltd, priority 2018, published 2020)

Key:
Format in all cases: cell-based
A-172 = assay: Cell viability panel, ATPlite 1Step; settings: Homo sapiens, Glioblastoma, 72 h exposure, read-out: Compound EC50
Method: (§1) Cell viability panel studies. Cells were diluted in the corresponding ATCC recommended medium and dispensed in a 384-well plate, depending on the cell line used, at a density of 200-6400 cells per well. For each used cell line, the optimal cell density was used. Compound was serially diluted and 8 concentration (0.04-32 μM) were added to the cells for 72 h exposure. At t=end, of ATPlite 1Step™ (PerkinElmer) were used to calculate cell viability. Cell lines marked with asterisk were seeded 24 h prior to treatment in 96-well plates at the density range of 5,000-40,000 cells/well, according to duplication rate, in RPMI 1640 medium containing 10% fetal bovine serum and 2 mM L-glutamine. Compounds were diluted from 10 mM DMSO stock and treatment was applied at the range of 0.04-1 μM. Following incubation at 37° C. for 48 hours with increasing concentrations of the compounds, viability was determined with CyQUANT® Direct Assay Kit (Invitrogen). Output intensities were normalized to values after treatment with DMSO alone, and EC50 values were calculated using the absorbance measurements [time zero, (Tz), growth control, (C), plus the test growth at the four drug concentration levels (Ti)] as follows: [(Ti−Tz)/(C−Tz)]×100 for concentrations for which Ti>/=Tz; [(Ti−Tz)/Tz]×100 for concentrations for which Ti−<Tz.

A-204 = assay: Cell viability panel, ATPlite 1Step; settings: Homo sapiens, A204, Embryonal rhabdomyosarcoma, 72 h exposure, read-out: Compound EC50
Method: as §1

BT-549 = assay: Cell viability panel, ATPlite 1Step; settings: Homo sapiens, Invasive ductal carcinoma, 72 h exposure, read-out: Compound EC50
Method: as §1

FaDu = assay: Cell viability panel, ATPlite 1Step; settings: Homo sapiens, Hypopharyngeal squamous cell carcinoma, 72 h exposure, read-out: Compound EC50
Method: as §1

HCT-15 = assay: Cell viability panel, ATPlite 1Step; settings: Homo sapiens, Colon adenocarcinoma, 72 h exposure, read-out: Compound EC50
Method: as §1

KLE = assay: Cell viability panel, ATPlite 1Step; settings: Homo sapiens, Endometrial adenocarcinoma, 72 h exposure, read-out: Compound EC50
Method: as §1

NCCIT = assay: Cell viability panel, ATPlite 1Step; settings: Homo sapiens, Testicular embryonal carcinoma, 72 h exposure, read-out: Compound EC50
Method: as §1

RD = assay: Cell viability panel, ATPlite 1Step; settings: Homo sapiens, Embryonal rhabdomyosarcoma, 72 h exposure, read-out: Compound EC50
Method: as §1

RPMI-7951 = assay: Cell viability panel, ATPlite 1Step; settings: Homo sapiens, Melanoma, 72 h exposure, read-out: Compound EC50
Method: as §1

SK-N-AS = assay: Cell viability panel, ATPlite 1Step; settings: Homo sapiens, Neuroblastoma, 72 h exposure, read-out: Compound EC50
Method: as §1

SK-N-FI = assay: Cell viability panel, ATPlite 1Step; settings: Homo sapiens, Neuroblastoma, 72 h exposure, read-out: Compound EC50
Method: as §1

SR = assay: Cell viability panel, ATPlite 1Step; settings: Homo sapiens, Anaplastic large cell lymphoma, 72 h exposure, read-out: Compound EC50
Method: as §1

SU-DHL-1 = assay: Cell viability panel, ATPlite 1Step; settings: Homo sapiens, Anaplastic large cell lymphoma, 72 h exposure, read-out: Compound EC50
Method: as §1

SU-DHL-6 = assay: Cell viability panel, ATPlite 1Step; settings: Homo sapiens, Diffuse large B-cell lymphoma, 72 h exposure, read-out: Compound EC50
Method: as §1

SW480 = assay: Cell viability panel, ATPlite 1Step; settings: Homo sapiens, Colon adenocarcinoma, 72 h exposure, read-out: Compound EC50
Method: as §1

SW872 = assay: Cell viability panel, ATPlite 1Step; settings: Homo sapiens, Liposarcoma, 72 h exposure, read-out: Compound EC50
Method: as §1

VA-ES-BJ = assay: Cell viability panel, ATPlite 1Step; settings: Epithelioid sarcoma, 72 h exposure, read-out: Compound EC50
Method: as §1

OVCAR-3 = assay: NCI60 screen cytotoxicity; settings: Homo sapiens, Ovarian cancer, read-out: Compound B1 EC50
PC-3 = assay: NCI60 screen cytotoxicity; settings: Homo sapiens, Prostate cancer, read-out: Compound B1 EC50
[1] = system: UPR branches (PERK, ATF6 and IRE1alpha); assay: UPR activation in MM1.S cells (immunoblot, RT-PCR); settings: 200 nM
Method: MM1.S cells were treated with 200 nM of Compound B1 for the indicated time points. Following the stated incubation periods the cells were harvested, lysed and resolved on SDS-PAGE gel. Proteins were transferred to PVDF membrane and immunoblotted with the indicated antibodies: FIG. 7A: anti phospho JNK, FIG. 7B: anti JNK, FIG. 7C: anti ATF6. FIG. 7D: anti phospho eIF2alpha, FIG. 7E: anti eIF2alpha, FIG. 7F: anti ATF4. XBP1 splicing was performed on cDNA (FIG. 7G), RNA was extracted cDNA was generated by RT-PCR and XPB1 transcript was amplified by PCR with gene specific primers. Splicing was detected by differential migration of XBP1 transcript on agarose gel. Transcriptional changes of CHOP (FIG. 7K) and ATF4 (FIG. 7J) were estimated by quantitative PCR with gene specific primers. Relative gene expression levels were normalized to GAPDH. Cleaved form of ATF6 and spliced XBP1 is indicated with arrow.
Protein analysis by Western blot. At the end of treatment period, the cells were lysed with M-PER mammalian protein extraction reagent (ThermoFisher Scientific) supplemented with protease inhibitors. Equal protein amounts were resolved on pre-cast SDS-PAGE (ThermoFisher Scientific) and transferred to a PVDF membrane. The membrane was immunoblotted with antibodies as indicated. The following antibodies were used: Ub MAb (SC-8017, Santa-Cruz), ATF4, ATF6, phospho JNK, JNK (Cell signaling); eIF2alpha, phospho eIF2alpha (Novus).
RT-PCR: MM cells were treated with compounds as indicated. Total RNA was extracted using RNAeasy kit (QIAGEN) and cDNA was synthesized using reverse transcriptase (Quantaces biosciences). mRNA levels of ATF4 and CHOP were determined by quantitative PCR using a StepOnePlus™ Real Time PCR system (Life Technologies) with gene specific assays (Thermo Scientific). XBP splicing were addressed by differential migration of XBP-1 gene transcript full size versus spliced form on 2% Agarose gel.

Q: Which results are given for CN(C)CCCS(=O)(=O)N1C/C(=C\c2ccc(C#N)cc2)C(=O)/C(=C/c2ccc(C#N)cc2)C1 [Compound AA]?
A: EC50 (A-172): < 0.3 µM; EC50 (A-204): < 0.3 µM; EC50 (BT-549): < 0.3 µM; EC50 (FaDu): < 0.3 µM; EC50 (HCT-15): 0.3 to 1 µM; EC50 (KLE): ≥ 1 µM; EC50 (NCCIT): < 0.3 µM; EC50 (RD): < 0.3 µM; EC50 (RPMI-7951): < 0.3 µM; EC50 (SK-N-AS): < 0.3 µM; EC50 (SK-N-FI): < 0.3 µM; EC50 (SR): < 0.3 µM; EC50 (SU-DHL-1): < 0.3 µM; EC50 (SU-DHL-6): < 0.3 µM; EC50 (SW480): < 0.3 µM; EC50 (SW872): < 0.3 µM; EC50 (VA-ES-BJ): < 0.3 µM

Q: Which results are given for CN(C)CC(=O)NCC(=O)N1C/C(=C\c2ccc(C#N)cc2)C(=O)/C(=C/c2ccc(C#N)cc2)C1 [Compound B1]?
A: EC50 (OVCAR-3): < 0.3 µM; EC50 (PC-3): < 0.3 µM; eIF2alpha phosphorylation (PERK activation) ([1]; after 1 hr of treatment): increases eI2Falpha phosphorylation; XBP splicing ([1]; differential migration of XBP gene transcript): Spliced XBP was detected; ATF6 full size form ([1]; immunoblot): short term upregulation of ATF6 full size form followed by a rapid decline; phosphorylated JNK ([1]; immunoblot, no change in total protein levels): significant upregulation in phosphorylated JNK; ATF4 and CHOP transcription (quantitative PCR) ([1]; peaking at 3 hr post treatment): transcriptional increase of both ATF4 and CHOP
